Where a chain is given by its changes, count along the chain named.
What was measured:
rP2X4R P207A mutant = molecular target: T1, rP2X4R P207A mutant (Rattus norvegicus, UniProt P51577, P207A); assay: whole-cell patch clamp, HEK293T cells expressing mutant; assay type: cell-based
T1 construct: expressed in transfected cells; host or cells: HEK293T
T1 sequence (P51577 1-388 P207A): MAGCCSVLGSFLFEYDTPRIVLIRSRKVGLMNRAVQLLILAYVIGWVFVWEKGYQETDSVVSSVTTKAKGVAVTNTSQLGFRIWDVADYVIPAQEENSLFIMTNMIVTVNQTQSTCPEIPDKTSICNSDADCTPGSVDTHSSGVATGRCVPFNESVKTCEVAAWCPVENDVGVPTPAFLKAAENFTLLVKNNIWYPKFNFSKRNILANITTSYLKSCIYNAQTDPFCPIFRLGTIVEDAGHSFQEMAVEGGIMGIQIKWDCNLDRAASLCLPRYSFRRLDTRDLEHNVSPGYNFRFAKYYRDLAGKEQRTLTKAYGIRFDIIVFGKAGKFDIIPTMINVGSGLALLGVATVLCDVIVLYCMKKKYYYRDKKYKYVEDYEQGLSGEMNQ

rP2X4R D283A mutant = molecular target: T2, rP2X4R D283A mutant (Rattus norvegicus, UniProt P51577, D283A); assay: as above; assay type: cell-based
T2 construct: expressed in transfected cells; host or cells: HEK293T
T2 sequence (P51577 1-388 D283A): T1 sequence (P51577 1-388 P207A) with A207P, D283A

[1] = 3 µM IVM 4-6 min vs IVM-untreated
[2] = 100 µM ATP 60 s, biexponential fit
[3] = contribution of τdes2, 100 µM ATP 60 s
[4] = naïve receptors, 2–5 s application

Structure (SMILES): CC[C@H](C)[C@H]1O[C@]2(CC[C@@H]1C)C[C@@H]1C[C@@H](C/C=C(\C)[C@@H](O[C@H]3C[C@H](OC)[C@@H](O[C@H]4C[C@H](OC)[C@@H](O)[C@H](C)O4)[C@H](C)O3)[C@@H](C)/C=C/C=C3\CO[C@@H]4[C@H](O)C(C)=C[C@@H](C(=O)O1)[C@]34O)O2 [IVM, ivermectin]
- Fold incr. Imax (rP2X4R P207A mutant; [1]): 1.5 ± 0.3 fold
- Fold incr. Imax (rP2X4R D283A mutant; [1]): 1.4 ± 0.1 fold

Structure (SMILES): Nc1ncnc2c1ncn2[C@@H]1O[C@H](COP(=O)(O)OP(=O)(O)OP(=O)(O)O)[C@@H](O)[C@H]1O [ATP]
- τdes1 (rP2X4R P207A mutant; [2]): 0.7 ± 0.1 s
- τdes2 (rP2X4R P207A mutant; [2]): 5.6 ± 0.2 s
- A2 /(A1+A2) (rP2X4R P207A mutant; [3]): 71 ± 2%
- EC50 (rP2X4R P207A mutant; [4]): 2.1 ± 1.1 µM
- τdes (rP2X4R P207A mutant; weighted, 100 µM ATP 60 s): 4.1 ± 0.2 s
- τdes1 (rP2X4R D283A mutant; [2]): 2.2 ± 0.6 s
- τdes2 (rP2X4R D283A mutant; [2]): 17.1 ± 5.8 s
- Imax (rP2X4R D283A mutant; 100–1000 µM ATP): 2.2 ± 0.3 nA
- Imax+IVM (rP2X4R D283A mutant; ATP after 3 µM IVM 4-6 min): 3.1 ± 0.3 nA
- A2 /(A1+A2) (rP2X4R D283A mutant; [3]): 59 ± 10%
- τoff +IVM (rP2X4R D283A mutant; decay after removal of 1 or 3 µM ATP, 3 µM IVM): 16 ± 1.7 s
- EC50 (rP2X4R D283A mutant; [4]): 7.3 ± 3.4 µM
- τdes (rP2X4R D283A mutant; weighted, 100 µM ATP 60 s): 9.1 ± 1.5 s
